Experimental data as given in patent US20090029406A1, “Npy Y4 Agonist as Therapeutic Agent for Disease Accompanied by Intestinal Tract Dysfunction” (Banyu Pharmaceutical Co., Ltd., priority 2006, published 2009).

Tests used:
male mice (C57BL/6J) = assay: Amount of excreted feces after subcutaneous administration to mice (Example 1); format: in vivo, mouse
Excerpt: Also, it is known that the Y4 receptor is present in the lower gastrointestinal tract. Accordingly, by administering mouse PP (mPP) to a mouse, an effect on the movement of the lower gastrointestinal tract of the mouse was studied. That is, how the amount of excreted feces was changed by the administration of mPP was observed, and a change in the gastrointestinal movement was discussed by assuming that an increase in the amount of excreted feces reflects an increase in the lower gastrointestinal tract movement.
To male mice (C57BL/6J, 15 weeks of age), mPP (0.001, 0.01, 0.1 or 1 mg/kg) was subcutaneously administered, and to a vehicle group, only saline (5 mL/kg) was subcutaneously administered. The mice were subjected to fasting at the same time of the subcutaneous administration of saline or mPP. Feces were collected at 1, 2 and 4 hours after the administration, and the weight of the feces was measured. A significant difference between groups was analyzed using an analysis of variance and the Dunnett's test.

[1] = system: proximal colon isolated from a C57BL/6 mouse; assay: Tension of isolated proximal colon, organ bath (Example 2)
Description: (§1) The ileum, proximal colon and distal colon were isolated from a C57BL/6 mouse (8 to 20 weeks of age). The specimens were cut into a length of 1 cm, respectively, and were suspended in the longitudinal muscle direction under a resting tension of 0.3 g in 5 mL of Krebs-Henseleit solution (the composition is shown in Table 1) oxygenated with 95% O2 and 5% CO2, while setting the temperature of a bath to 37° C. The tension was measured using an isometric transducer (TB-651, manufactured by Nihon Kohden), and outputs were recorded at 20 points per second using Power Lab (manufactured by ADInstrument).
(§2) After equilibration for 1 hour, mPP at 0.01 μM, 0.1 μM and 1 μM was applied and measurement was carried out for 20 minutes. The above-mentioned mPP was prepared such that it became 0.01 mM, 0.1 mM and 1 mM solutions in DMSO, and 5 μL of each of the resulting solutions was applied to 5 mL of an organ bath. The action of mPP was represented by a ratio of an average tension for 20 minutes after the application to an average tension for 20 minutes before the application. The statistical calculation was performed using the paired t-test.

[2] = system: distal colon isolated from a C57BL/6 mouse; assay: Tension of isolated distal colon, organ bath (Example 2)
Description: as §1, §2

[3] = system: ileum isolated from a C57BL/6 mouse; assay: Tension of isolated ileum, organ bath (Example 2); settings: 0.01, 0.1 and 1 μM
Description: as §1, §2

[4] = system: mouse models of constipation induced by clonidine; assay: Mouse models of constipation induced by clonidine, amount of excreted feces (Example 3); format: in vivo; settings: clonidine 0.1 mg/kg i.p., mPP 1 mg/kg s.c. one hour later; 4 hours after clonidine (3 hours after mPP)
Description: To male mice (C57BL/6J, 18 weeks of age), clonidine (0.1 mg/kg) was intraperitoneally administered, and to a vehicle group, only saline was intraperitoneally administered. One hour after the administration of clonidine, saline (a control group) or mPP (1 mg/kg) was subcutaneously administered, and also to a vehicle group, only saline was subcutaneously administered. The mice were subjected to fasting at the same time of the intraperitoneal administration of saline or clonidine. Feces were collected at 1, 2, 3 and 4 hours after the administration, and the weight of the feces was measured. A significant difference between groups was analyzed using an analysis of variance and the Tukey's test.

wild-type mice = assay: Amount of excreted feces in wild-type mice (Example 4); format: in vivo, mouse; settings: 1 mg/kg subcutaneous
Description: (§3) The following test was carried out using wild-type mice and NPY Y4 receptor knockout mice (male, 23 to 39 weeks of age, n=10 to 16). mPP (1 mg/kg) or saline (5 mL/kg) was subcutaneously administered to the mice. The mice were subjected to fasting at the same time of the subcutaneous administration. Feces were collected at 1 and 2 hours after the administration, and the weight of the feces was measured. The cumulative amount of feces for 2 hours was used for an analysis, and a significant difference between groups was analyzed using the Student's t-test.

[5] = system: NPY Y4 receptor knockout mice; assay: Amount of excreted feces in NPY Y4 receptor knockout mice (Example 4); format: in vivo, mouse; settings: 1 mg/kg subcutaneous, vehicle group 358±31 mg/2 h
Description: as §3

[6] = system: proximal colon isolated from a wild-type mouse; assay: Tension of proximal colon isolated from wild-type mouse (Example 5); settings: 1 μM
Description: (§4) The ileum, proximal colon and distal colon were isolated from an NPY Y4 receptor knockout mouse and a wild-type mouse (32 to 37 weeks of age). The specimens were cut into a length of 1 cm, respectively, and were suspended in the longitudinal muscle direction under a resting tension of 0.3 g in 5 mL of Krebs-Henseleit solution oxygenated with 95% O2 and 5% CO2, while setting the temperature of a bath to 37° C. The tension was measured using an isometric transducer (TB-65 1, manufactured by Nihon Kohden), and outputs were recorded at 20 points per second using Power Lab (ADInstrument).
(§5) After equilibration for 1 hour, 1 μM mPP was applied and measurement was carried out for 20 minutes. The above-mentioned mPP was prepared such that it became a 1 mM solution in DMSO, and 5 μL of the resulting solution was applied to 5 mL of an organ bath. The action of mPP was represented by a ratio of an average tension for 20 minutes after the application to an average tension for 20 minutes before the application. The statistical calculation was performed using the Student's t-test or paired t-test.

[7] = system: distal colon isolated from a wild-type mouse; assay: Tension of distal colon isolated from wild-type mouse (Example 5); settings: 1 μM
Description: as §4, §5

[8] = system: ileum isolated from an NPY Y4 receptor knockout mouse and a wild-type mouse; assay: Tension of ileum isolated from NPY Y4 receptor knockout and wild-type mouse (Example 5); settings: 1 μM
Description: as §4, §5

[9] = 0.01, 0.1 and 1 μM, ratio of average tension 20 min after to 20 min before application

## mouse PP (APLEPMYPGDYATPEQMAQYETQLRRYINTLTRPRY; mouse) [mPP]
Male mice (C57BL/6J); 0.1 mg/kg subcutaneous, P<0.05 vs vehicle group (211±18 mg/4 h)
  cumulative amount of excreted feces for 4 hours after administration: 325±22 mg/4 h
Male mice (C57BL/6J); 0.001, 0.01, 0.1 or 1 mg/kg subcutaneous, feces collected at 1, 2 and 4 hours
  action of increasing defecation (amount of excreted feces): exhibited an action of increasing defecation in a dose dependent manner
Male mice (C57BL/6J); 1 mg/kg subcutaneous, P<0.01 vs vehicle group (211±18 mg/4 h)
  cumulative amount of excreted feces for 4 hours after administration: 408±36 mg/4 h
Male mice (C57BL/6J); subcutaneous
  dose at which cumulative amount of excreted feces for 4 hours was significant compared with the vehicle group: ≥ 0.1 mg/kg
[1]
  amplitude of automatism: an increase in the amplitude of automatism was observed
[1]; 0.01, 0.1 and 1 μM
  increase in the tension, dose dependence: increased the tension in a dose dependent manner
[1]; [9]
  maximum action on tension, of that before the application: 131%
[2]
  amplitude of automatism: an increase in the amplitude of automatism was observed
[2]; 0.01, 0.1 and 1 μM
  increase in the tension, dose dependence: increased the tension in a dose dependent manner
[2]; [9]
  maximum action on tension, of that before the application: 152%
[3]
  increase in the tension: a significant increase in the tension was not observed
[4]
  decrease in the amount of excreted feces compared with the vehicle group: a significant decrease in the amount of excreted feces was not observed
wild-type mice
  action of increasing defecation: exhibited an action of increasing defecation
wild-type mice; P<0.01 vs vehicle group (322±41 mg/2 h)
  cumulative amount of feces for 2 hours: 668±64 mg/2 h
[5]
  cumulative amount of feces for 2 hours: 403±43 mg/2 h
[6]
  increase in the tension: an increase in the tension observed in the wild-type mouse
[7]
  increase in the tension: an increase in the tension observed in the wild-type mouse
[8]
  difference in the change in the tension between wild-type and NPY Y4 receptor knockout mouse: a difference was not observed between them
